Test results taken from PubChem BioAssay (NCI).
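Grown in 96-well plates, cells were treated for 48 hours with each compound at five concentrations. Insufficient inhibition: endpoint recorded as highest concentration tested. GI50 marks 50% less growth. TGI denotes the concentration required for complete inhibition of growth.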

Experiments:
Assay in all cases: NCI tumour cell line growth inhibition, 48 h
ACHN renal = test system: ACHN renal
K-562 leukemia = test system: K-562 leukemia
SF-268 CNS = test system: SF-268 CNS
MCF7 breast = test system: MCF7 breast
HOP-62 NSCLC = test system: HOP-62 NSCLC
NCI/ADR-RES ovarian = test system: NCI/ADR-RES ovarian
CCRF-CEM leukemia = test system: CCRF-CEM leukemia
EKVX NSCLC = test system: EKVX NSCLC
M14 melanoma = test system: M14 melanoma
SNB-19 CNS = test system: SNB-19 CNS

SMILES	GI50 (ACHN renal)	TGI (ACHN renal)	GI50 (K-562 leukemia)	TGI (K-562 leukemia)	GI50 (SF-268 CNS)	TGI (SF-268 CNS)	GI50 (MCF7 breast)	TGI (MCF7 breast)	GI50 (HOP-62 NSCLC)	TGI (HOP-62 NSCLC)	GI50 (NCI/ADR-RES ovarian)	TGI (NCI/ADR-RES ovarian)	GI50 (CCRF-CEM leukemia)	TGI (CCRF-CEM leukemia)	GI50 (EKVX NSCLC)	TGI (EKVX NSCLC)	TGI (M14 melanoma)	TGI (SNB-19 CNS)	GI50 (M14 melanoma)	GI50 (SNB-19 CNS)
CN(C)Cc1ccc(NC(=O)c2cncc(C#Cc3cnc(N)c4ncccc34)c2)cc1F	3.28 µM	11.4 µM	0.0566 µM	1.85 µM	2.25 µM	4.24 µM	1.66 µM	3.45 µM	13.4 µM	42.8 µM	2.2 µM	4.54 µM	2.29 µM	6.66 µM	2 µM	4.01 µM	–	–	–	–
COS(C)(=O)=O	–	> 2 µM	–	> 2 µM	–	> 2 µM	–	> 2 µM	–	> 2 µM	–	> 2 µM	–	> 2 µM	–	> 2 µM	> 2 µM	> 2 µM	–	–
COc1ccc(-c2cc(-c3ccc(Cl)cc3)nc(NCCCCNc3ccnc4cc(Cl)ccc34)n2)cc1	12.6 µM	25.6 µM	1.83 µM	5.02 µM	2.39 µM	6.31 µM	1.82 µM	3.73 µM	1.69 µM	3.44 µM	1.6 µM	3.37 µM	2.6 µM	> 100 µM	13.2 µM	35.1 µM	6.3 µM	25.7 µM	2.34 µM	11 µM
CS(=O)(=O)c1cccc(Nc2ncc3cc(-c4ccccc4Cl)ccc3n2)c1	1.01 µM	> 33.3 µM	0.165 µM	> 33.3 µM	1.35 µM	> 33.3 µM	1.37 µM	> 33.3 µM	1.3 µM	> 33.3 µM	1.24 µM	17.7 µM	1.47 µM	> 33.3 µM	1.37 µM	> 33.3 µM	> 33.3 µM	> 33.3 µM	1.15 µM	2.46 µM
CC1=C(C(=O)Nc2ccc(F)c(Cl)c2)C(c2cccc(Oc3ccccc3)c2)NC(=S)N1 (stereo not given)	12.3 µM	36.1 µM	10.7 µM	31.6 µM	10.5 µM	24.2 µM	12.8 µM	> 50 µM	14.7 µM	30.1 µM	27.8 µM	> 50 µM	17.7 µM	47.6 µM	14.8 µM	41.5 µM	27.3 µM	> 50 µM	12 µM	32.2 µM
CC(=O)Nc1ccc(S(=O)(=O)N=S(C)C)cc1	–	> 100 µM	–	> 100 µM	–	> 100 µM	–	> 100 µM	–	> 100 µM	–	> 100 µM	–	> 100 µM	–	> 100 µM	> 100 µM	> 100 µM	–	–
COc1ccc(-c2cn(-c3ccc(OC)c(OC)c3)c(=O)[nH]2)cc1	> 100 µM	> 100 µM	37.4 µM	> 100 µM	> 100 µM	> 100 µM	> 100 µM	> 100 µM	> 100 µM	> 100 µM	85.8 µM	> 100 µM	> 100 µM	> 100 µM	> 100 µM	> 100 µM	> 100 µM	> 100 µM	> 100 µM	> 100 µM
COc1cc([N+](=O)[O-])c(S(=O)(=O)O)cc1-n1nc(C(=O)Nc2ccccc2)n[n+]1-c1cc(S(=O)(=O)[O-])c([N+](=O)[O-])cc1OC	–	> 100 µM	–	> 100 µM	–	> 100 µM	–	> 100 µM	–	> 100 µM	–	> 100 µM	–	> 100 µM	–	> 100 µM	> 100 µM	> 100 µM	–	–
COc1cc(-c2nc3ccccc3o2)cc(CN2CCCCC2)c1O	8.96 µM	83.8 µM	8.18 µM	> 100 µM	5.12 µM	> 100 µM	1.58 µM	4.34 µM	2.58 µM	9.96 µM	5.79 µM	76.4 µM	4.06 µM	> 100 µM	12.3 µM	> 100 µM	3.26 µM	26.9 µM	1.48 µM	5.44 µM
CCN(CC)c1ccc(-c2cc(-c3cc(OC)c(OC)c(OC)c3)nc(N3CCC(O)CC3)c2C#N)cc1	0.406 µM	> 42.5 µM	0.353 µM	2.13 µM	0.988 µM	3.13 µM	0.628 µM	–	1.01 µM	11.9 µM	0.272 µM	5.95 µM	0.6 µM	> 100 µM	0.613 µM	> 100 µM	0.799 µM	7.42 µM	0.262 µM	1.72 µM
CC(=O)Nc1cc2cc(NS(=O)(=O)c3ccc(Cl)c(Cl)c3)ccc2oc1=O	–	> 100 µM	–	> 100 µM	–	61.7 µM	–	47.7 µM	–	46.7 µM	–	> 100 µM	–	> 100 µM	–	> 100 µM	> 100 µM	> 100 µM	–	–
Clc1cccc(CNc2c3ccccc3nc3ccccc23)c1	1.59 µM	3.66 µM	2.39 µM	11.2 µM	2.54 µM	7.88 µM	1.62 µM	3.53 µM	2.77 µM	12.4 µM	1.8 µM	4.97 µM	2.31 µM	8.77 µM	2.76 µM	11.2 µM	3.02 µM	12.4 µM	1.53 µM	2.89 µM
Oc1ccc(C(O)(c2ccccc2)c2ccccc2)c2ccccc12	–	3.73 µM	–	23.5 µM	–	9.63 µM	–	> 100 µM	–	7.16 µM	–	6.58 µM	–	1.8 µM	–	26.4 µM	10.7 µM	19.8 µM	–	–
Cc1ccc(Cl)c(NS(=O)(=O)c2ccc(-c3cnc(C4CC4)o3)cc2)c1	0.205 µM	> 72.7 µM	0.0479 µM	> 100 µM	3.33 µM	> 66.3 µM	0.0407 µM	25.9 µM	0.268 µM	> 83.7 µM	0.0618 µM	6.04 µM	0.0777 µM	> 100 µM	0.314 µM	> 100 µM	> 42.6 µM	> 100 µM	0.0698 µM	0.129 µM
C=C1C(=O)O[C@H]2[C@H]1CC/C(COC(=O)/C=C\C(=O)NCc1ccc(Cn3c(=O)sn(CCI)c3=O)cc1)=C\CC[C@@]1(C)O[C@@H]21	1.93 µM	3.74 µM	2.45 µM	> 100 µM	10.1 µM	23.6 µM	3.37 µM	25.9 µM	15.1 µM	28.6 µM	10.2 µM	> 100 µM	1.61 µM	6.19 µM	4.7 µM	20.2 µM	19.7 µM	24.7 µM	6.25 µM	11.4 µM
